Measured values as given in US5880157A, “Derivatives of tetramethylcyclopropane” (Yissum Research Development Company of the Hebrew …, priority 1994, dated 1999).

What was measured:
[1] = test system: maximal electroshock seizure (MES); assay: maximal electroshock seizure (MES) test, rats; settings: for ED50: Rattus norvegicus, read-out: MES ED50; for MES PI (protective index, TD50/ED50) / effective dose in the MES test (ED50) compared with Valproic Acid: rats; for effective dose in the MES test (ED50) compared with Valproic Acid: in words
From the text: (§1) All compounds described before were screened for their ability to protect against seizures in two different models of epilepsy: the maximal electroshock seizure (MES) model; and the subcutaneous pentylenetetrazol (Metrazol) seizure threshold (s.c.Met) test. Agents effective in the MES model have been correlated with the ability to prevent the seizure spread, whereas those agents effective in the s.c. Met model have been correlated with the ability to raise the threshold for excitation of neural tissue. The PI value, the protective index, is calculated as described below.
(§2) The MES test is the most commonly used test to assess activity against these types of seizures.

[2] = test system: subcutaneous pentylenetetrazol (Metrazol) seizure threshold; assay: subcutaneous pentylenetetrazol (Metrazol) seizure threshold (s.c. Met) test, rats; settings: for ED50: Rattus norvegicus, sc, read-out: scMet ED50; for scMet PI (protective index, TD50/ED50): rats
From the text: as §1, §2

[3] = test system: subcutaneous pentylenetetrazol (Metrazol) seizure threshold; assay: subcutaneous pentylenetetrazol (Metrazol) seizure threshold (s.c. Met) test, mice; settings: for ED50: Mus musculus, sc, read-out: scMet ED50; for scMet PI (protective index, TD50/ED50): mice; for effective doses in the s.c. Met test compared with VPA or ETS: mouse model, in words
From the text: as §1, §2

[4] = in words; literature; cited from earlier work
[5] = test system: maximal electroshock seizure (MES); assay: maximal electroshock seizure (MES) test, mice; settings: for ED50: Mus musculus, read-out: MES ED50; for MES PI (protective index, TD50/ED50) / effective dose in the MES test (ED50) compared with Valproic Acid: mice; for effective dose in the MES test (ED50) compared with Valproic Acid: in words
From the text: as §1, §2

[6] = neurotoxicity, positional sense test and gait and stance test, rats (p.o.); assay type: in vivo, rat
Protocol: (§3) Neurotoxicity of the described compounds was assessed in mice (i.p. administration) by the rotorod ataxia test (See Swinyard et al., Supra, pages 85-100), and also in some cases in rats (p.o. administration) by the positional sense test and gait and stance test (see Swinyard above) .

[7] = neurotoxicity, rotorod ataxia test, mice (i.p.); assay type: in vivo, mouse
Protocol: as §3

Structure (SMILES)	ED50 [1] [mg/kg]	ED50 [2] [mg/kg]	ED50 [3] [mg/kg]	adverse side effects [4]	MES PI (protective index, TD50/ED50) [1]	effective dose in the MES test (ED50) compared with Valproic Acid [1]	scMet PI (protective index, TD50/ED50) [2]	ED50 [5] [mg/kg]	MES PI (protective index, TD50/ED50) [5]	effective dose in the MES test (ED50) compared with Valproic Acid [5]	scMet PI (protective index, TD50/ED50) [3]	effective doses in the s.c. Met test compared with VPA or ETS [3]	TD50 (median neurological toxic dose) [6] [mg/kg]	TD50 ([7]; mouse, ip, read-out: TD50 (median neurological toxic dose)) [mg/kg]	TD50 ([6]; rat, po, read-out: TD50 (median neurological toxic dose)) [mg/kg]	TD50 (median neurological toxic dose) [7] [mg/kg]
CCCC(CCC)C(=O)O [Valproic Acid, reference compound]	490	180	149	considerable adverse side effects including hepatoxicity and teratogenicity	–	–	–	–	–	–	–	–	–	–	–	–
CNC(=O)C1C(C)(C)C1(C)C [Compound 1, N-Methyl-2,2,3,3-tetramethylcyclopropanecarboxamide]	82	45	39	–	2.0	lower effective dose in the MES test	3.6	98	0.8	lower effective dose in the MES test	2.1	lower than that found for either VPA or ETS	163	83	–	–
CC1(C)C(C(=O)NCC(N)=O)C1(C)C [Compound 2, N-[(2,2,3,3-Tetramethylcyclopropyl)carbonyl]-glycinamide]	82	> 250	115	–	> 6.1	lower effective dose in the MES test	–	173	1.5	lower effective dose in the MES test	2.3	lower than that found for either VPA or ETS	–	–	> 500	259
CCC1(C)CC(=O)NC1=O (stereo not shown) [ETS, Ethosuximide, reference compound]	> 1200	54	130	–	–	–	–	> 1000	–	–	–	–	–	–	–	441
CC1(C)C(C(N)=O)C1(C)C [Compound 3, 2,2,3,3-Tetramethylcyclopropanecarboxamide]	> 250	52	57	–	–	–	7.3	> 120	–	–	1.7	lower than that found for either VPA or ETS	381	–	–	99
